Test results from patent EP0774460A1, “BENZOIC ACID COMPOUND AND USE THEREOF AS MEDICINE” (YOSHITOMI PHARMACEUTICAL INDUSTRIES, LTD., priority 1994, dated 1995).
Like-named read-outs stand apart in the source and are kept apart here.

Columns and labels:
5-HT4 receptor = target: T1, 5-HT4 receptor (Cavia porcellus, UniProt O70528); assay: 5-HT4 receptor binding test; set-up: species or system guinea pig
T1 construct: crude synapse membrane sample was prepared from guinea pig striatum; from tissue; host or cells: guinea pig striatum, crude synaptic membranes
T1 sequence (O70528 whole entry): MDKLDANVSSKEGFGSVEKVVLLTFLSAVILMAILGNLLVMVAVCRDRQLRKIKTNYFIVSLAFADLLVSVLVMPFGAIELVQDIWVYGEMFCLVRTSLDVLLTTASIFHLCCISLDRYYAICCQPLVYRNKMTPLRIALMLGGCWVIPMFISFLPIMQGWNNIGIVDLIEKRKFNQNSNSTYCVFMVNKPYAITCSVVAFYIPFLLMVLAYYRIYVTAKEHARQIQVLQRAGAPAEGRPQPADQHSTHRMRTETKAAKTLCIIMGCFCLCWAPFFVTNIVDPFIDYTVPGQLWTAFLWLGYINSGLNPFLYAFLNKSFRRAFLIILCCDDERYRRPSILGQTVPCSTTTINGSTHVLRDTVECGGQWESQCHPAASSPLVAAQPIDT
Procedure: Experimental Example 1 : 5-HT4 receptor binding test
According to the method of C.J. Grossman et al. (British Journal of Pharmacology, vol. 109, pp. 618-624), a specific 5-HT4 receptor binding test was run using, as a tracer ligand, 1-methyl-1H-indole-3-carboxylic acid · 1-(2-methylsulfonylaminoethyl)-piperidin-4-ylmethyl ester substituted by tritium (hereinafter to be referred to as [3H]GR113808). Specifically, crude synapse membrane sample was prepared from guinea pig striatum, suspended in 50 mM HEPES buffer (pH 7.4) and used for testing. The test compound having several different concentrations and [3H]GR113808 (final concentration 0.1 nM) were added to this suspension and allowed to react at 37°C. Thirty minutes later, the reaction mixture was filtered by suction with cell harvester. The filter was washed with 50 mM HEPES buffer, and the radioactivity on the filter was counted by liquid scintillation counter. The non-specific binding was determined in the presence of 1 µM GR113808. The concentration of the test compound necessary for 50% inhibition (IC50) and Ki value were determined from graph.

5-HT3 receptor = target: T2, 5-HT3 receptor (Rattus norvegicus, UniProt P35563); assay: 5-HT3 receptor binding test; details: for Ki: cells without asterisk, read-out: Affinity for receptor (Ki value, nM) 5-HT3
T2 construct: crude synapse membrane sample was prepared from rat cerebral cortex; from tissue; host or cells: rat cerebral cortex, crude synaptic membranes
T2 sequence (P35563 24-483): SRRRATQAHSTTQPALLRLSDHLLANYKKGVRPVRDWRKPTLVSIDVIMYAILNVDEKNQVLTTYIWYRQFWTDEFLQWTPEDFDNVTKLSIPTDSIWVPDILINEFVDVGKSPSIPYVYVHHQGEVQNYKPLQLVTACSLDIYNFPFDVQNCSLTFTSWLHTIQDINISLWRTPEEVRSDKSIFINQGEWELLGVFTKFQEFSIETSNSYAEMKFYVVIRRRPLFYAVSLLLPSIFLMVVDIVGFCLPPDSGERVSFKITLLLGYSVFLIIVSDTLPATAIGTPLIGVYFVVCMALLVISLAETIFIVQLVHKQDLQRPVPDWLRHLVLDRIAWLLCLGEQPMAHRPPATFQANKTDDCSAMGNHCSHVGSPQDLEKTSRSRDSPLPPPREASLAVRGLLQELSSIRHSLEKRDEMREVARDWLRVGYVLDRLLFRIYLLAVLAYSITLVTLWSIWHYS
Procedure: Experimental Example 2 : 5-HT3 receptor binding test
According to the method of Peroutka et al (European Journal of Pharmacology, vol. 148, pp. 297-299), a specific 5-HT3 receptor binding test was run using, as a tracer ligand, endo-1-methyl-N-(9-methyl-9-azabicyclo[3.3.1]non-3-yl)-1H-indazole-3-carboxamide substituted by tritium (hereinafter to be referred to as [3H]Granisetron). Specifically, crude synapse membrane sample was prepared from rat cerebral cortex, suspended in 50 mM HEPES buffer (pH 7.4) and used for testing. The test compound having several different concentrations and [3H]Granisetron (final concentration 1.0 nM) were added to this suspension and allowed to react at 25°C. Thirty minutes later, the reaction mixture was filtered by suction with cell harvester. The filter was washed with 50 mM Tris buffer (pH 7.4), and the radioactivity on the filter was counted using liquid scintillation counter or β-plate. The non-specific binding was determined in the presence of 1 µM Tropisetron. The concentration of the test compound necessary for 50% inhibition (IC50) and Ki value were determined from graph.

[1] = target: isolated guinea pig ascending colon (Cavia porcellus, UniProt O70528); assay: contraction of isolated guinea pig ascending colon; format: cell-based; details: male Hartley guinea pig ascending colon, Tyrode solution 37°C, relative to methacholine (30 µM) contraction; read-out: Contraction of removed colon (EC50)
Sequence of isolated guinea pig ascending colon (O70528 whole entry): as the sequence (O70528 whole entry) above
Procedure: Experimental Example 3 : contraction of isolated guinea pig ascending colon
About 3 cm long ascending colon segment was taken from male Hartley guinea pig and suspended in 10 ml of a Tyrode solution ventilated with a mixed gas of oxygen (95%) and CO2 (5%) at 37°C with the load of 2 g. The contraction was isotonically measured via isotonic transducer. After an equilibrium period of about 30 min, the test compound was administered non-cumulatively from lower concentrations, and dose-dependent contraction was measured. The test compound was administered at 15 minutes intervals. Then, contraction by the test compound in the presence of a 5-HT4 receptor antagonist, 4-amino-3-chloro-6-methoxybenzoic acid · 2-diethylaminoethyl ester (0.3 µM, hereinafter to be referred to as SDZ 205-557) was determined, and antagonistic effect on the reaction by SDZ 205-557 was confirmed.
The contraction by the test compound was evaluated based on the ratio of reaction relative to mean contraction induced by methacholine (30 µM) administered before and after each determination of dose-dependent contraction. The contraction was probit-converted using the maximum value of dose-response curve as 100, and expressed by EC50 as determined from linear regression and maximum reaction ratio.

[2] = [3H]GR113808 0.1 nM, crude synapse membrane from guinea pig striatum, 37°C, read-out: Affinity for receptor (Ki value, nM) 5-HT4
[3] = [3H]Granisetron 1.0 nM, crude synapse membrane from rat cerebral cortex, 25°C
[4] = [3H]Granisetron 1.0 nM, crude synapse membrane from rat cerebral cortex, 25°C, cells marked * are IC50, read-out: Affinity for receptor 5-HT3 (∗ shows IC50)

| Ki (5-HT4 receptor; [2]) [nM] | Ki (5-HT3 receptor; [3]) [nM] | IC50 (5-HT3 receptor; [4]) [nM] | EC50 [1] [nM] | Structure (SMILES) | Ki (5-HT4 receptor) [nM] | IC50 (5-HT3 receptor) [nM] |
| --- | --- | --- | --- | --- | --- | --- |
| 1.4 | 370 | – | – | COc1cc(N)c(Cl)cc1C(=O)NCCCCCN1CC[C@H](CNC(=O)c2cc(Cl)c(N)cc2OC)C1 [Example 78, 4-amino-N-((3R)-1-(5-(4-amino-5-chloro-2-methoxybenzoylamino)pentyl)pyrrolidin-3-ylmethyl)-5-chloro-2-methoxybenzamide] | – | – |
| 2.3 | – | > 1000 | – | COc1cc(N)c(Cl)cc1C(=O)NCC1CCN(CCCCCNC(=O)c2ccc(C)cc2)CC1 [Example 31, 4-amino-5-chloro-N-(1-(5-(4-methylbenzoylamino)pentyl)piperidin-4-ylmethyl)-2-methoxybenzamide] | – | – |
| 1.7 | – | > 1000 | 3.7 | COc1cc(N)c(Cl)cc1C(=O)NCC1CCN(CCCCCNC(=O)c2ccccc2)CC1 [Example 29, 4-amino-N-(1-(5-benzoylaminopentyl)piperidin-4-ylmethyl)-5-chloro-2-methoxybenzamide] | – | – |
| 7.4 | – | > 1000 | 6.7 | COc1cc(N)c(Cl)cc1C(=O)NCC1CCN(CCCCCN2C(=O)c3ccccc3C2=O)C1 (stereo not drawn) [Example 70, 4-amino-5-chloro-N-(1-(5-(2,3-dihydro-1,3-dioxo-1H-isoindol-2-yl)pentyl)pyrrolidin-3-ylmethyl)-2-methoxybenzamide] | – | – |
| 7.4 | – | > 1000 | – | COc1cc(N)c(Cl)cc1C(=O)NCC1CCN(CCCC(=O)Nc2ccccc2)C1 (stereo not drawn) [Example 71, 4-amino-5-chloro-2-methoxy-N-(1-(3-phenylcarbamoylpropyl)pyrrolidin-3-ylmethyl)benzamide] | – | – |
| 4.4 | – | > 1000 | – | COc1cc(N)c(Cl)cc1C(=O)NCC1CCN(CCCNC(=O)c2cccs2)C1 (stereo not drawn) [Example 19, 4-amino-5-chloro-2-methoxy-N-(1-(3-(2-thiophenecarbonylamino)propyl)pyrrolidin-3-ylmethyl)benzamide] | – | – |
| 1.4 | – | > 1000 | 4.6 | COc1cc(N)c(Cl)cc1C(=O)NCC1CCN(CCCCNC(=O)c2ccc3ccccc3c2)CC1 [Example 25, 4-amino-5-chloro-2-methoxy-N-(1-(4-(2-naphthoylamino)butyl)piperidin-4-ylmethyl) benzamide] | – | – |
| 0.43 | – | > 1000 | 0.9 | COc1cc(N)c(Cl)cc1C(=O)NCC1CCN(CCCCCNC(=O)c2cn(C)c3ccccc23)CC1 [Example 90, N-(5-(4-(4-amino-5-chloro-2-methoxybenzoylaminomethyl)piperidin-1-yl)pentyl)-1-methyl-1H-indole-3-carboxamide] | – | – |
| 0.44 | 260 | – | 1.2 | COc1cc(N)c(Cl)cc1C(=O)NC[C@H]1CCN(CCCCNC(=O)c2cn(C)c3ccccc23)C1 [Example 85, N-(4-((3R)-3-(4-amino-5-chloro-2-methoxybenzoylaminomethyl)pyrrolidin-1-yl)butyl)-1-methyl-1H-indole-3-carboxamide] | – | – |
| 3.1 | – | > 1000 | – | COc1cc(N)c(Cl)cc1C(=O)NCC1CCN(CCCNC(=O)c2ccc(C)cc2)C1 (stereo not drawn) [Example 17, 4-amino-5-chloro-2-methoxy-N-(1-(3-(4-methylbenzoylamino)propyl)pyrrolidin-3-ylmethyl)benzamide] | – | – |
| 1.6 | – | > 1000 | 3.9 | COc1cc(N)c(Cl)cc1C(=O)NCC1CCN(CCCCNC(=O)c2cccc3ccccc23)CC1 [Example 24, 4-amino-5-chloro-2-methoxy-N-(1-(4-(1-naphthoylamino)butyl)piperidin-4-ylmethyl)benzamide] | – | – |
| 2.2 | – | > 1000 | 5.3 | COc1cc(N)c(Cl)cc1C(=O)NC[C@H]1CCN(CCCCCNC(=O)c2ccccc2)C1 [Example 27, 4-amino-N-((3R)-1-(5-benzoylaminopentyl)pyrrolidin-3-yl-methyl)-5-chloro-2-methoxybenzamide] | – | – |
| 5.3 | – | > 1000 | – | COc1cc(N)c(Cl)cc1C(=O)NC[C@H]1CCN(CCNC(=O)CCCc2ccccc2)C1 [Example 100, 4-amino-5-chloro-2-methoxy-N-((3R)-1-(2-(4-phenylbutyrylamino)ethyl)pyrrolidin-3-ylmethyl)benzamide] | – | – |
| 0.81 | – | > 1000 | 1.6 | COc1cc(N)c(Cl)cc1C(=O)NCC1CCN(CCCCCNC(=O)c2cccc(Cl)c2)CC1 [Example 30, 4-amino-5-chloro-N-(1-(5-(3-chlorobenzoylamino)pentyl)piperidin-4-ylmethyl)-2-methoxybenzamide] | – | – |
| 1.6 | – | > 1000 | 4 | COc1cc(N)c(Cl)cc1C(=O)NCC1CCN(CCCCNC(=O)c2cn(C)c3ccccc23)CC1 [Example 98, N-(4-(4-(4-amino-5-chloro-2-methoxybenzoylaminomethyl)piperidin-1-yl)butyl)-1-methyl-1H-indole-3-carboxamide] | – | – |
| 3.1 | – | > 1000 | – | COc1cc(N)c(Cl)cc1C(=O)NCC1CCN(CCCNC(=O)c2ccc(Cl)cc2)C1 (stereo not drawn) [Example 13, 4-amino-5-chloro-N-(1-(3-(4-chlorobenzoylamino)propyl)pyrrolidin-3-ylmethyl)-2-methoxybenzamide] | – | – |
| 5.5 | – | > 1000 | – | CCCNC(=O)NCCCCN1CCC(CNC(=O)c2cc(Cl)c(N)cc2OC)CC1 [Example 45, 4-amino-5-chloro-2-methoxy-N-(1-(4-(3-n-propylureido)butyl)piperidin-4-ylmethyl)benzamide] | – | – |
| 1.1 | 190 | – | – | COc1cc(N)c(Cl)cc1C(=O)NCC1CCN(CCCCCNC(=O)Nc2ccc(Cl)cc2)CC1 [Example 59, 4-amino-5-chloro-N-(1-(5-(3-(4-chlorophenyl)ureido)pentyl)-piperidin-4-ylmethyl)-2-methoxybenzamide] | – | – |
| – | – | – | – | COc1cc(N)c(Cl)cc1C(=O)NC[C@H]1CCN(CCCCNC(=O)c2cn(C(C)C)c3ccccc23)C1 [Example 94, N-(4-((3R)-3-(4-amino-5-chloro-2-methoxybenzoylaminomethyl)pyrrolidin-1-yl)butyl)-1-isopropyl-1H-indole-3-carboxamide] | 3.5 | > 1000 |
| 6.2 | – | > 1000 | – | COc1cc(N)c(Cl)cc1C(=O)NC[C@H]1CCN(CCCNC(=O)c2ccccc2)C1 [Example 11, 4-amino-N-((3R)-1-(3-benzoylaminopropyl)pyrrolidin-3-ylmethyl)-5-chloro-2-methoxybenzamide] | – | – |

| Structure (SMILES) | Ki (5-HT4 receptor; [2]) [nM] | Ki (5-HT3 receptor; [3]) [nM] | IC50 (5-HT3 receptor; [4]) [nM] | EC50 [1] [nM] | Ki (5-HT4 receptor) [nM] | IC50 (5-HT3 receptor) [nM] |
| --- | --- | --- | --- | --- | --- | --- |
| COc1cc(N)c(Cl)cc1C(=O)NC[C@H]1CCN(CCCCNC(=O)c2cn(Cc3ccccc3)c3ccccc23)C1 [Example 95, N-(4-((3R)-3-(4-amino-5-chloro-2-methoxybenzoylaminomethyl)pyrrolidin-1-yl)butyl)-1-benzyl-1N-indole-3-carboxamide] | 1.2 | – | > 1000 | – | – | – |
